Assay [1] in a line: Inhibition of [3H]nitrendipine binding to L-type calcium channel in guinea pig ventricular myocardium membranes.
Assay in assay [2]: as above
The source holds these as a separate data set.

These results are taken from BindingDB's records for doi:10.1021/jm00167a035 (Squibb Institute For Medical Research, 1990).

Consider `CCOC(=O)C1C(C)=NC(SC)=NC1c1cccc([N+](=O)[O-])c1` (configuration not stated), for which the Kd in assay [1] amounted to 23 nM.
On to `CSC1=NC(c2cccc([N+](=O)[O-])c2)C(C(=O)OC(C)C)=C(C)N1` (configuration not stated), for which the dissociation constant (Kd) in assay [2] was found to be 12 nM.
The same measure, in the same setting: in the case of `CCOC(=O)C1=C(C)NC(SC)=NC1c1ccccc1C(F)(F)F` (configuration not stated) it was 35 nM; in that of `CCOC(=O)C1=C(C)N=C(OC)NC1c1cccc([N+](=O)[O-])c1` (configuration not stated), 105 nM.
On the same count and under the same terms, to `CCOC(=O)C1=C(C)NC(N(C)C)=NC1c1cccc([N+](=O)[O-])c1` (configuration not stated) belongs 3400 nM.
Take `COC(=O)C1=C(C)N=C(SC)NC1c1cccc([N+](=O)[O-])c1` (configuration not stated): the Kd in assay [2] came to 120 nM.
On the same count and under the same terms, to `CCC(C)OC(=O)C1=C(C)NC(SC)=NC1c1cccc([N+](=O)[O-])c1` (configuration not stated) belongs 2.6 nM.
